Consider one sequence from publication PMC12254070, “Antimicrobial Peptides Design Using Deep Learning and Rational Modifications: Activity in Bacteria, Candida albicans, and Cancer Cells” (Current Microbiology, 2025).

Data set [1] concerns C. albicans ATCC 10231. The class given is cell-based, Candida albicans. As for the experimental part: (§1) The antimicrobial activity of the peptides was evaluated with S. aureus ATCC 25923, P. aeruginosa ATCC 27853, Escherichia coli ATCC 25922, Klebsiella quasipneumoniae ATCC 700603, and the yeast C. albicans ATCC 10231. The minimum inhibitory concentration (MIC) was determined following the protocol described by Wiegand et al.. Briefly, bacteria were grown overnight in Mueller–Hinton (MH) medium at 37 °C and 90 rpm, while C. albicans was grown at 30 °C in MH supplemented with 30% YPD (yeast extract, peptone, dextrose). The concentration of bacteria and C. albicans was adjusted to 10^6 CFU/mL. […] Microorganism growth was measured hourly at 600 nm for 24 h, with a 10-s shaking cycle, on a Multiskan Go microplate reader (Thermo Scientific). The experiments with bacteria were incubated at 37 °C, whereas those with C. albicans were incubated at 30 °C. Each peptide was evaluated by duplicate on 2 different days. The MIC was estimated as the minimum peptide concentration at which the microorganism had no growth. […] In all assays, untreated culture medium without peptides was included as a negative control to account for basal microbial growth. All assays were performed in two independent experiments, each conducted with two technical replicates (n = 4 per condition).

For data set [2], the system named is Escherichia coli ATCC 25922. The class given is cell-based. How it is done: as §1
In data set [3] the test system is Klebsiella quasipneumoniae ATCC 700603. The class given is cell-based. As for the experimental part: as §1
Data set [4] concerns S. aureus ATCC 25923. It counts as cell-based, Staphylococcus aureus. How it is done:
as §1

Data set [5] relates to P. aeruginosa ATCC 27853. It counts as cell-based, Pseudomonas aeruginosa. How it is done:
as §1

The test system of data set [6] is human breast adenocarcinoma (MCF-7) cells. The class given is cell-based. The settings on record: MTT, 24 h incubation with peptide, triplicate, non-linear regression; read-out: IC50 MCF-7. How it is done: (§2) The methodology proposed by Zhang et al. […] After 24 h of incubation, the wells were washed twice with PBS, and 10 μL of MTT solution was added to each well at a final concentration of 0.5 mg/mL, and the cell cultures were incubated for 4 h at 37 °C. The solution was removed from each well, and the formazan crystals were dissolved with 100 μL of Sodium Dodecyl Sulfate (0.01 M). After 16 h, absorbance was measured with a MultiSkan Go microplate reader at 570 nm. The untreated wells were used as a negative control, while wells treated with DMSO were used as a positive control for cytotoxicity. The percent viability was determined using the following equation. %viability=[…]-×100% where ABSM is the average absorbance with the treatment and ABSC is the absorbance obtained in the controls (positive and negative).

The test system of data set [7] is human lung adenocarcinoma (A549) cells. It counts as cell-based. As to conditions: MTT, 24 h incubation with peptide, triplicate, non-linear regression; read-out: IC50 A549. As for the experimental part: as §2
For data set [8], the system named is human red blood cells. Description: Hemolysis assay. As to conditions: human erythrocytes 1:10 in 0.9% PBS, 50 µM peptide, 37 °C, 3 h, OD 545 nm, 0.1% Triton X-100 = positive control, three replicate wells.
Where [9] appears, read: Mueller–Hinton, 10^6 CFU/mL, 37 °C, 24 h, OD 600 nm, minimum concentration with no growth, n = 4.
[10] abbreviates: minimum bactericidal concentration, value in brackets.

Ends that are not written are not given here.

Take IKKWGKVLKKLI [VeP1M]: the “MIC C.a” value in data set [1] (MH + 30% YPD, 10^6 CFU/mL, 30 °C, 24 h, OD 600 nm, minimum concentration with no growth, n = 4) was found to be 15.2 µM. Besides, the IC50 (in general, the point on the concentration scale where inhibition reaches its midpoint) in data set [1] (half inhibitory concentration against the microorganism, Table S4, dose-response curves, read-out: IC50 C.a.) was found to be 10 µM; in data set [2] (half inhibitory concentration against the microorganism, Table S4, dose-response curves, read-out: IC50 E.c.) it was 3.7 µM; in data set [3] (half inhibitory concentration against the microorganism, Table S4, dose-response curves, read-out: IC50 K.q.) it was 6.8 µM; in data set [4] (half inhibitory concentration against the microorganism, Table S4, dose-response curves, read-out: IC50 S.a.), 8.3 µM; in data set [5] (half inhibitory concentration against the microorganism, Table S4, dose-response curves, read-out: IC50 P.a.) it was 10 µM; in data set [6] it was 13.6 µM. Also, in data set [7], the IC50 amounted to 35 µM. In addition, the “MFC C.a” value in data set [1] (minimum fungicide concentration, value in brackets) amounted to 30.3 µM. Also, the MIC E.c in data set [2] (setting [9]) is 7.6 µM. Further, the MBC E.c in data set [2] (setting [10]) stood at 7.6 µM. Moreover, the MIC K.q in data set [3] (setting [9]) was 30.4 µM. In data set [3] (setting [10]), this sequence had an MBC K.q of 30.4 µM. This sequence also gave an MIC S.a in data set [4] (setting [9]) of 15.2 µM. The sequence further registered an MBC S.a in data set [4] (setting [10]) of 15.2 µM. Further, the MIC P.a in data set [5] (setting [9]) worked out at 3.8 µM. In data set [5] (setting [10]), this sequence yielded an MBC P.a of 3.8 µM. In addition, the “% Hemolysis at 50 µM” value in data set [8] was determined as 0.0%.
